From patent US8962674B2 (Tokyo Institute of Technology, priority 2006, dated 2015)

Target: recombinant human β-secretase (rhBACE-1) (Homo sapiens (Human), UniProt P56817)
Sequence (P56817 46-501): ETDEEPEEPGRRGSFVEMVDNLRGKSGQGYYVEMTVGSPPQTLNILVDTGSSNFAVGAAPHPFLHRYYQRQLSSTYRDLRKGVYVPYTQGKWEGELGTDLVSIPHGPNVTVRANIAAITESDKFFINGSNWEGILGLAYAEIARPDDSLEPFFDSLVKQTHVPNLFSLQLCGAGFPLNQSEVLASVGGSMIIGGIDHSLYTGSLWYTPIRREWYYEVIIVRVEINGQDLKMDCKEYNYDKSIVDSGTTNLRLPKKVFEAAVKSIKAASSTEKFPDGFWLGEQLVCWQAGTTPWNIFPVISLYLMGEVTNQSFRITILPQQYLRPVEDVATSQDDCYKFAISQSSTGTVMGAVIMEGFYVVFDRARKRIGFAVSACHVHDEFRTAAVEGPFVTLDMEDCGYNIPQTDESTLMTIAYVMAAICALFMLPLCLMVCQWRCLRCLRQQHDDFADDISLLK
Experiment: β-Secretase enzyme inhibition assay (Test Example 1)
Format: biochemical
Conditions: compound solution 3 μM (FIG. 1 legend: 1.0 μM), 37° C., 2 hr, fluorescent substrate peptide
Protocol: β-Secretase Enzyme Inhibition Assay
Compounds were dissolved in dimethylsulfoxide (DMSO), and further diluted in 0.1 M sodium acetate buffer (with 150 mM sodium chloride, pH 4.5). The solution with no compound was used as a negative control. Then, 100 μL of these solutions (compound concentration: 3 μM), 1 μL of recombinant human β-secretase (rhBACE-1, R&D), and 5 μL of the fluorescent substrate peptide were mixed in a black 96-well plate (Nunc). After mixtures were incubated in the dark at 37° C. for 2 hr, the fluorescence intensities of the mixtures were measured by fluorescence microplate reader (Wallac) at 540 nm for excitation and at 590 nm for emission. The inhibition ratio was calculated as a percentage of the negative control. The sequence of the peptide was […] and labeled with fluorescent donor (Cy3) at Ser-1 and with quencher (Cy5Q) at Lys-9, respectively (Invitrogen).
In the case of `COc1cc(/C=C/C(=O)CC(=O)/C=C/c2ccc3cc[nH]c3c2)ccc1O` [CU190, (1E,6E)-1-(4-hydroxy-3-methoxyphenyl)-7-(1H-indol-6-yl)hepta-1,6-diene-3,5-dione], the “inhibition of BACE-1 enzyme activity (inhibitory activities (%) shown in FIG. 1)” value is reported as “strongly inhibited”. In the case of `COc1ccc(/C=C/C(=O)CC(=O)/C=C/c2cccc(O)c2OC)cc1O` [CU176, (1E,6E)-1-(3-hydroxy-2-methoxyphenyl)-7-(3-hydroxy-4-methoxyphenyl)hepta-1,6-diene-3,5-dione], the “inhibition of BACE-1 enzyme activity (inhibitory activities (%) shown in FIG. 1)” value is reported as “strongly inhibited”. With `COc1cc(/C=C/C(=O)CC(=O)/C=C/c2cccc(O)c2OC)ccc1O` [CU001, (1E,6E)-1-(3-hydroxy-2-methoxyphenyl)-7-(4-hydroxy-3-methoxyphenyl)hepta-1,6-diene-3,5-dione] the “inhibition of BACE-1 enzyme activity (inhibitory activities (%) shown in FIG. 1)” value was “strongly inhibited”. With `O=C(/C=C/c1ccc(O)cc1)CC(=O)/C=C/c1ccc(O)c(F)c1` [CU030, (1E,6E)-1-(3-fluoro-4-hydroxyphenyl)-7-(4-hydroxyphenyl)hepta-1,6-diene-3,5-dione] the “inhibition of BACE-1 enzyme activity (inhibitory activities (%) shown in FIG. 1)” value was “strongly inhibited”. With `Cn1cc(/C=C/C(=O)CC(=O)/C=C/c2ccc(O)cc2)cn1` [CU198, (1E,6E)-1-(4-hydroxyphenyl)-7-(1-methyl-1H-pyrrazol-4-yl)hepta-1,6-diene-3,5-dione] the “inhibition of BACE-1 enzyme activity (inhibitory activities (%) shown in FIG. 1)” value was “strongly inhibited”. With `COc1ccc(/C=C/C(=O)CC(=O)/C=C/c2cccn2C)cc1O` [CU122, (1E,6E)-1-(3-hydroxy-4-methoxyphenyl)-7-(1-methyl-1H-pyrrol-2-yl)hepta-1,6-diene-3,5-dione] the “inhibition of BACE-1 enzyme activity (inhibitory activities (%) shown in FIG. 1)” value was “strongly inhibited”. For `O=C(/C=C/c1ccc(O)cc1)CC(=O)/C=C/c1cccc2ccccc12` [CU112, (1E,6E)-1-(4-hydroxyphenyl)-7-(naphthalen-1-yl)hepta-1,6-diene-3,5-dione], the “inhibition of BACE-1 enzyme activity (inhibitory activities (%) shown in FIG. 1)” value was “strongly inhibited”.

System: not given
Experiment: not given
Conditions: not given
For `COc1ccc(/C=C/C(=O)CC(=O)/C=C/c2cccc(O)c2OC)cc1O` [CU176, (1E,6E)-1-(3-hydroxy-2-methoxyphenyl)-7-(3-hydroxy-4-methoxyphenyl)hepta-1,6-diene-3,5-dione], the melting point was 190 to 192 °C. `COc1cc(/C=C/C(=O)CC(=O)/C=C/c2cccc(O)c2OC)ccc1O` [CU001, (1E,6E)-1-(3-hydroxy-2-methoxyphenyl)-7-(4-hydroxy-3-methoxyphenyl)hepta-1,6-diene-3,5-dione] showed a melting point of 152 to 155 °C. With `O=C(/C=C/c1ccc(O)cc1)CC(=O)/C=C/c1ccc(O)c(F)c1` [CU030, (1E,6E)-1-(3-fluoro-4-hydroxyphenyl)-7-(4-hydroxyphenyl)hepta-1,6-diene-3,5-dione] the melting point was 190 to 192 °C. `CN(C)c1ccc(/C=C/C(=O)CC(=O)/C=C/c2ccc(N(C)C)cc2Cl)c(Cl)c1` [CU412, (1E,6E)-1,7-bis(2-chloro-4-dimethylaminophenyl)hepta-1,6-diene-3,5-dione] gave a melting point of 238 to 241 °C. For `COc1ccc(/C=C/C(=O)CC(=O)/C=C/c2ccc(O)cc2OC)cc1O` [CU086, (1E,6E)-1-(4-hydroxy-2-methoxyphenyl)-7-(3-hydroxy-4-methoxyphenyl)hepta-1,6-diene-3,5-dione], the melting point was 90 to 95 °C. Compound `Cc1ccc(Oc2ncccc2/C=C/C(=O)CC(=O)/C=C/c2ccc(O)cc2)cc1` [CU340, (1E,6E)-1-(4-hydroxyphenyl)-7-[2-(4-methylphenoxy)pyridin-3-yl]hepta-1,6-diene-3,5-dione] has a melting point of 180 to 185 °C. For `CN(C)S(=O)(=O)c1ccccc1/C=C/C(=O)CC(=O)/C=C/c1ccc(O)cc1` [CU480, (1E,6E)-1-[2-(dimethylaminosulfonyl)phenyl]-7-(4-hydroxyphenyl)hepta-1,6-diene-3,5-dione], the melting point was 86 to 90 °C. In the case of `COc1ccc([N+](=O)[O-])c(/C=C/C(=O)CC(=O)/C=C/c2ccc(O)cc2)c1` [CU481, (1E,6E)-1-(4-hydroxyphenyl)-7-(5-methoxy-2-nitrophenyl)hepta-1,6-diene-3,5-dione], the melting point is reported as 151 to 155 °C. With `COc1ccc(/C=C/C(=O)CC(=O)/C=C/c2ccc(O)c([N+](=O)[O-])c2)cc1O` [CU041, (1E,6E)-1-(3-hydroxy-4-methoxyphenyl)-7-(4-hydroxy-3-nitrophenyl)hepta-1,6-diene-3,5-dione] the melting point was 220 to 224 °C. With `COc1cc(/C=C/C(=O)CC(=O)/C=C/c2cccnc2)ccc1O` [CU024, (1E,6E)-1-(4-hydroxy-3-methoxyphenyl)-7-(pyridin-3-yl)hepta-1,6-diene-3,5-dione] the melting point was 176 to 179 °C. `O=C(/C=C/c1ccc(O)cc1)CC(=O)/C=C/c1cc(O)c(Br)cc1Br` [CU544, (1E,6E)-1-(2,4-dibromo-5-hydroxyphenyl)-7-(4-hydroxyphenyl)hepta-1,6-diene-3,5-dione] gave a melting point of 255 to 259 °C. `O=C(/C=C/c1ccc(O)cc1)CC(=O)/C=C/c1cccc(-c2ccccc2)c1` [CU504, (1E,6E)-1-(biphenyl-3-yl)-7-(4-hydroxyphenyl)hepta-1,6-diene-3,5-dione] showed a melting point of 176 to 182 °C. `COc1cc(/C=C/C(=O)CC(=O)/C=C/c2ccc(O)cc2)ccc1F` [CU137, (1E,6E)-1-(4-fluoro-3-methoxyphenyl)-7-(4-hydroxyphenyl)hepta-1,6-diene-3,5-dione] showed a melting point of 136 to 143 °C. In the case of `CN(C)c1ccc(/C=C/C(=O)CC(=O)/C=C/c2ccc(O)cc2)cc1` [CU207, (1E,6E)-1-(4-dimethylaminophenyl)-7-(4-hydroxyphenyl)hepta-1,6-diene-3,5-dione], the melting point is reported as 205 to 209 °C. `CC(C)(C)OC(=O)N1CCc2ccc(/C=C/C(=O)CC(=O)/C=C/c3ccc(O)cc3)cc21` [CU419, (1E,6E)-1-[1-(tert-butoxycarbonyl)-indolin-6-yl]-7-(4-hydroxyphenyl)hepta-1,6-diene-3,5-dione] gave a melting point of 111 to 118 °C. Work on `COc1cc(/C=C/C(=O)C(=Cc2ccncc2)C(C)=O)ccc1O` [CU014, (5E)-6-(4-hydroxy-3-methoxyphenyl)-3-(pyridin-4-ylmethylene)hex-5-ene-2,4-dione] yielded a melting point of 92 to 95 °C. In the case of `COc1ccc(O)cc1/C=C/C(=O)CC(=O)/C=C/c1cc(O)ccc1OC` [CU380, (1E,6E)-1,7-bis(5-hydroxy-2-methoxyphenyl)hepta-1,6-diene-3,5-dione], the melting point is reported as 188 to 196 °C. `CN(C)c1ccc(C(F)(F)F)cc1/C=C/C(=O)CC(=O)/C=C/c1ccc(O)cc1` [CU535, (1E,6E)-1-(2-dimethylamino-5-trifluoromethylphenyl)-7-(4-hydroxyphenyl)hepta-1,6-diene-3,5-dione] showed a melting point of 68 to 74 °C. `COc1cccc(OC)c1/C=C/C(=O)CC(=O)/C=C/c1c(OC)cccc1OC` [CU390, (1E,6E)-1,7-bis(2,6-dimethoxyphenyl)hepta-1,6-diene-3,5-dione] showed a melting point of 180 to 184 °C. Work on `COc1cc(/C=C/C(=O)CC(=O)/C=C/c2cc(Cl)cc(Cl)c2O)ccc1O` [CU021, (1E,6E)-1-(3,5-dichloro-2-hydroxyphenyl)-7-(4-hydroxy-3-methoxyphenyl)hepta-1,6-diene-3,5-dione] yielded a melting point of 185 to 188 °C. In the case of `COc1ccc(/C=C/C(=O)CC(=O)/C=C/c2ncc[nH]2)cc1O` [CU151, (1E,6E)-1-(3-hydroxy-4-methoxyphenyl)-7-(1H-imidazol-2-yl)hepta-1,6-diene-3,5-dione], the melting point is reported as 219 to 221 °C. Work on `O=C(/C=C/c1ccc(O)c(Cl)c1)CC(=O)/C=C/c1ccc(O)c(Cl)c1` [CU387, (1E,6E)-1,7-bis(3-chloro-4-hydroxyphenyl)hepta-1,6-diene-3,5-dione] yielded a melting point of 203 to 208 °C. `COc1cc(/C=C/C(=O)CC(=O)/C=C/c2cccc(OC)c2OC)ccc1O` [CU070, (1E,6E)-1-(2,3-dimethoxyphenyl)-7-(4-hydroxy-3-methoxyphenyl)hepta-1,6-diene-3,5-dione] gave a melting point of 57 to 65 °C. For `CN(C)c1ccc(/C=C/C(=O)CC(=O)/C=C/c2ccc(N(C)C)cc2[N+](=O)[O-])c([N+](=O)[O-])c1`, the melting point was 245 to 250 °C. `COc1ccc(/C=C/C(=O)CC(=O)/C=C/c2cc(Cl)ccc2Cl)cc1O` [CU185, (1E,6E)-1-(2,5-dichlorophenyl)-7-(3-hydroxy-4-methoxyphenyl)hepta-1,6-diene-3,5-dione] showed a melting point of 140 to 146 °C. `COc1cc(/C=C/C(=O)CC(=O)/C=C/c2ccc(Cl)c(Cl)c2)ccc1O` [CU046, (1E,6E)-1-(3,4-dichlorophenyl)-7-(4-hydroxy-3-methoxyphenyl)hepta-1,6-diene-3,5-dione] showed a melting point of 70 to 76 °C. For `O=C(/C=C/c1cccc2cccnc12)CC(=O)/C=C/c1cccc2cccnc12` [CU414, (1E,6E)-1,7-bis(quinolin-8-yl)hepta-1,6-diene-3,5-dione], the melting point was 202 to 208 °C. `CCN(CC)c1ccc(/C=C/C(=O)CC(=O)/C=C/c2ccc(O)cc2)c(OCC=C(C)C)c1` [CU426, (1E,6E)-1-(4-diethylamino-2-prenyloxyphenyl)-7-(4-hydroxyphenyl)hepta-1,6-diene-3,5-dione] gave a melting point of 69 to 76 °C. Compound `COc1ccc(/C=C/C(=O)CC(=O)/C=C/c2ccc3ccn(Cc4ccccc4)c3c2)cc1O` [CU444, (1E,6E)-1-(1-benzyl-1H-indol-6-yl)-7-(3-hydroxy-4-methoxyphenyl)hepta-1,6-diene-3,5-dione] has a melting point of 190 to 194 °C. In the case of `COc1cc(/C=C/C(=O)CC(=O)/C=C/c2ccc(O)cc2)c(Br)cc1O` [CU539, (1E,6E)-1-(2-bromo-4-hydroxy-5-methoxyphenyl)-7-(4-hydroxyphenyl)hepta-1,6-diene-3,5-dione], the melting point is reported as 237 to 242 °C. `O=C(/C=C/c1ccc(O)cc1)CC(=O)/C=C/c1ccc2ccccc2c1` [CU149, (1E,6E)-1-(4-hydroxyphenyl)-7-(naphthalen-2-yl)hepta-1,6-diene-3,5-dione] gave a melting point of 225 to 230 °C. Work on `O=C(/C=C/c1ccc(O)cc1)CC(=O)/C=C/c1cc(Br)ccc1F` [CU466, (1E,6E)-1-(5-bromo-2-fluorophenyl)-7-(4-hydroxyphenyl)hepta-1,6-diene-3,5-dione] yielded a melting point of 177 to 203 °C.
